In patent publication US4008219A, “4-Benzazonine derivatives and process for preparation thereof” (Nihon Iyakuhin Kogyo Co., Ltd., priority 1973, dated 1977):
Structures can show the parent of a compound that is named as a salt.

Key:
Acute Toxicity = conditions: in vivo; mouse, intravenous injection
Protocol: (§1) Tested Animal: mice of the ddN-series, .male., 20 ± 1 experimental
(§2) Conditions: temperature of 24 ± 1° C., relative humidity of 65

mice of the ddN-series [1] = experiment: Analgesic test, Chemical Stimulus Method (Writhing Method); assay type: in vivo, mouse; design: scale not given here; conditions: interabdominal injection, comparative value, scale not given
Protocol: (§3) Results of comparative tests where the medicinal effects of compounds of this invention were compared with those of known compounds such as pentazocine and codeine phosphate by employing mice and guinea pigs as the test animals are shown in the following Tables I and II.
Chemical Stimulus Method^1)
(interabdominal injection)
as §1, §2
^1) R. Koster, M. Anderson and E. J. De Beer, Federation Proceedings, […]

mice of the ddN-series [2] = experiment: Analgesic test, Heat Stimulus Method (Hot Plate Method); assay type: in vivo, mouse; design: reference not given here; conditions: hypodermic injection, comparative value, scale not given
Protocol: as §3
Heat Stimulus Method^2)
as §1, §2
^2) G. Woolfe and A. D. Mac Donald; Journal of Pharmacology and […]

mice of the ddN-series [3] = experiment: Analgesic test, Pressure Stimulus Method; assay type: in vivo, mouse; conditions: hypodermic injection, comparative value, pentazocine 1.0
Protocol: as §3
Pressure Stimulus Method^3)
R (hypodermic injection)
as §1, §2
^3) A. F. Green, P. A. Yound and E. I. Godfrey; British Journal of
Pharmacology and Chemotherapy, 6, 572 (1951)

[4] = Hygroscopicity of the salt; assay type: physicochemical; conditions: crystalline salt, cis-form
guinea pigs [5] = experiment: Antitussive effect, Chemical Stimulus Method (SO2 gas); assay type: in vivo, guinea pig; conditions: for ED50: Cavia porcellus, sc, 0.5 h, read-out: ED50, Chemical Stimulus Method (antitussive); for Effect Ratio to Codeine Phosphate, Chemical Stimulus Method: codeine phosphate = 100
Text: as §3
(§4) Comparison of Antitusive Effects
2) Takagi et al modification [Journal of Pharmaceutical Society of Japan,
80, 1497 (1960)] of the test method of H. Friebel, C. Reichle and A. V.
Gravenitz [Archiv Fur experimentalle Phathologie und Pharmakologie,
Naunyn-Schmiede-berg's, 224,384 (1955)], in which the test compound was
hypodermically injected into guinea pigs, 30 minutes after the injection
the quinea pigs were put into a desiccator filled with SO2 gas and
kept in the desiccator for 1 minute, then the guinea pigs were put into
another vessel and the degree of coughing was examined.

guinea pigs [6] = experiment: Antitussive effect, Mechanical Stimulus Method; assay type: in vivo, guinea pig; conditions: for ED50: Cavia porcellus, swine hairs inserted into the trachea; for Effect Ratio to Codeine Phosphate, Mechanical Stimulus Method: codeine phosphate = 100
Text: as §3, §4
Mechanical Stimulus Method^1)
1) Takagi et al modification [Journal of the Pharmaceutical Society of
Japan, 80, 1497 (1960)] of the test method of H. Konzett and E. Rothlin
[Experientia, 10, 472 (1954)], in which urethane was hypodermically
injected (15 mg/Kg) into guinea pigs and swine hairs were inserted into
the trachea to impart stimulus.

[7] = guinea pigs, hypodermic injection, SO2 gas, 1 minute, 30 minutes after injection

| SMILES | LD50 (Acute Toxicity) [mg/kg] | Chemical Stimulus Method (Writhing Method) (mice of the ddN-series [1]) | Heat Stimulus Method (Hot Plate Method) (mice of the ddN-series [2]) | Pressure Stimulus Method (mice of the ddN-series [3]) | also measured |
| --- | --- | --- | --- | --- | --- |
| CCN1CCC2(C)c3cc(OC)ccc3CC(C1)C2C (stereo not shown) | 100 | 0.8 | 2.0 |  |  |
| COc1ccc2c(c1)C1(C)CCN(CCc3ccccc3)CC(C1)C2O (stereo not shown) | 45 | 1.6 | 2.2 | 1.8 |  |
| C=CCN1CCC2(C)CC(C1)C(O)c1ccc(OC)cc12 (stereo not shown) | 61 | 1.4 | 1.6 |  |  |
| CCC12CCN(C)CC(C(O)c3ccc(OC)cc31)C2C (stereo not shown) [Example 10, 4,12-dimethyl-1-ethyl-10-methoxy-2,3,4,5,6,7-hexahydro-1,6-methano-1H-4-benzazonin-7-ol] |  |  |  |  | hygroscopicity [4]: very hygroscopic |
| COc1ccc2c(c1)C1(C)CCN(C)CC(C2O)C1C (stereo not shown) [Example 12] |  |  |  |  | hygroscopicity [4]: hygroscopic |
| CC1C2CN(C)CCC1(C)c1ccccc1C2O (stereo not shown) [Example 15] |  |  |  |  | hygroscopicity [4]: hygroscopic |
| CC1C2Cc3ccc(O)cc3C1(C)CCN(C)C2 (stereo not shown) [Example 20] |  |  |  |  | hygroscopicity [4]: hygroscopic |
| CCC12CCN(C)CC(Cc3ccc(O)cc31)C2C (stereo not shown) [Example 22] |  |  |  |  | hygroscopicity [4]: hygroscopic |
| CC1C2Cc3ccccc3C1(C)CCN(C)C2 (stereo not shown) [Example 23] |  |  |  |  | hygroscopicity [4]: hygroscopic |
| OC1c2ccccc2C2CCN(CCc3ccccc3)CC1C2 (stereo not shown) [Example 59, hydrobromide] |  |  |  |  | solubility in water (Solubility in water): water-soluble |
| CC1C2Cc3ccc(O)cc3C1(C)CCN(CCc1ccccc1)C2 (stereo not shown) [Example 87] |  |  |  |  | hygroscopicity [4]: being hygro- |
| CC(C)CCN1CCC2(C)c3cc(O)ccc3CC(C1)C2C (stereo not shown) [Example 89] |  |  |  |  | hygroscopicity [4]: being hygro- |
| CC1C2Cc3ccc(O)cc3C1(C)CCN(C)C2 (stereo not shown) [Example 90] |  |  |  |  | hygroscopicity [4]: being hygro- |
| CCN1CCC2(C)CC(Cc3ccc(OC)cc32)C1 (stereo not shown) [R=CH3O, R1=CH3, R2=H, CH2R3=CH2CH3, R4=H] | 120 | 0.8 | 2.0 |  |  |
| COc1ccc2c(c1)C1(C)CCN(C)CC(C2)C1 (stereo not shown) [R=CH3O, R1=CH3, R2=H, CH2R3=CH3, R4=H] | 120 | 0.8 | 2.0 |  |  |
| COc1ccc2c(c1)C1(C)CCN(C)CC(C1)C2O (stereo not shown) [R=CH3O, R1=CH3, R2=H, CH2R3=CH3, R4=OH, 1,4-dimethyl-10-methoxy-2,3,4,5,6,7-hexahydro-1,6-methano-1H-4-benzazonin-7-ol] | 72 | 1.5 | 5.0 | 1.2 | ED50 (guinea pigs [5]; [7]): 6.06 mg/kg; Effect Ratio to Codeine Phosphate, Chemical Stimulus Method (guinea pigs [5]; guinea pigs, SO2 gas): 218.8; ED50 (guinea pigs [6]): 13.7 mg/kg; Effect Ratio to Codeine Phosphate, Mechanical Stimulus Method (guinea pigs [6]): 105.5 |
| COc1ccc2c(c1)C1(C)CCN(CCc3ccccc3)CC(C2)C1 (stereo not shown) [R=CH3O, R1=CH3, R2=H, CH2R3=drawing 44, R4=H] | 48 | 1.5 | 2.0 |  |  |
| CC1C2CN(C)CCC1(C)c1ccccc1C2O (stereo not shown) [R=H, R1=CH3, R2=CH3, CH2R3=CH3, R4=OH] | 30 | 1.6 | 2.0 | 1.5 |  |

| SMILES | LD50 (Acute Toxicity) [mg/kg] | Chemical Stimulus Method (Writhing Method) (mice of the ddN-series [1]) | Heat Stimulus Method (Hot Plate Method) (mice of the ddN-series [2]) | Pressure Stimulus Method (mice of the ddN-series [3]) | also measured |
| --- | --- | --- | --- | --- | --- |
| C=CCN1CCC2(C)CC(C1)C(O)c1ccccc12 (stereo not shown) [R=H, R1=CH3, R2=H, CH2R3=CH2CHCH2, R4=OH] | 55 | 1.8 | 1.5 | 2.0 |  |
| CN1CCC2(C)CC(C1)C(O)c1ccccc12 (stereo not shown) [R=H, R1=CH3, R2=H, CH2R3=CH3, R4=OH, 1,4-dimethyl-2,3,4,5,6,7-hexahydro-1,6-methano-1H-4-benzazonin-7-ol] | 70 | 0.7 | 1.4 | 1.2 | ED50 (guinea pigs [5]; [7]): 1.64 mg/kg; Effect Ratio to Codeine Phosphate, Chemical Stimulus Method (guinea pigs [5]; guinea pigs, SO2 gas): 800.7; ED50 (guinea pigs [6]): 4.42 mg/kg; Effect Ratio to Codeine Phosphate, Mechanical Stimulus Method (guinea pigs [6]): 326.9 |
| CC(C)=CCN1CCC2(C)CC(C1)C(O)c1ccccc12 (stereo not shown) [R=H, R1=CH3, R2=H, CH2R3=drawing 38, R4=OH] | 25 | 1.5 | 1.5 | 1.6 |  |
| C=CCN1CCC2CC(Cc3ccccc32)C1 (stereo not shown) [R=H, R1=H, R2=H, CH2R3=CH2CHCH2, R4=H, 4-allyl-2,3,4,5,6,7-hexahydro-1,6-methano-1H-4-benzazonine] | 45 | 1.4 | 5.0 | 1.5 | ED50 (guinea pigs [5]; [7]): 12.7 mg/kg; Effect Ratio to Codeine Phosphate, Chemical Stimulus Method (guinea pigs [5]; guinea pigs, SO2 gas): 104.7; ED50 (guinea pigs [6]): 7.42 mg/kg; Effect Ratio to Codeine Phosphate, Mechanical Stimulus Method (guinea pigs [6]): 195.0 |
| CN1CCC2CC(Cc3ccccc32)C1 (stereo not shown) [R=H, R1=H, R2=H, CH2R3=CH3, R4=H, 4-methyl-2,3,4,5,6,7-hexahydro-1,6-methano-1H-4-benzazonine] | 20 | 2.5 | 0.6 |  |  |
| CN1CCC2CC(C1)C(O)c1ccccc12 (stereo not shown) [R=H, R1=H, R2=H, CH2R3=CH3, R4=OH, 4-methyl-2,3,4,5,6,7-hexahydro-1,6-methano-1H-4-benzazonin-7-ol] |  |  |  |  | ED50 (guinea pigs [5]; [7]): 6.58 mg/kg; Effect Ratio to Codeine Phosphate, Chemical Stimulus Method (guinea pigs [5]; guinea pigs, SO2 gas): 201.4; ED50 (guinea pigs [6]): 9.21 mg/kg; Effect Ratio to Codeine Phosphate, Mechanical Stimulus Method (guinea pigs [6]): 157.1 |
| CC(C)=CCN1CCC2CC(C1)C(O)c1ccccc12 (stereo not shown) [R=H, R1=H, R2=H, CH2R3=drawing 36, R4=OH] | 60 | 1.2 | 1.2 | 1.4 |  |
| OC1c2ccccc2C2CCN(CCc3ccccc3)CC1C2 (stereo not shown) [R=H, R1=H, R2=H, CH2R3=drawing 37, R4=OH] | 45 | 1.8 | 4.5 | 2.0 |  |
| CC(C)=CCN1CCC2CC(Cc3ccccc32)C1 (stereo not shown) [R=H, R1=H, R2=H, CH2R3=drawing 40, R4=H] | 65 | 1.0 | 1.5 | 1.4 |  |
| c1ccc(CCN2CCC3CC(Cc4ccccc43)C2)cc1 (stereo not shown) [R=H, R1=H, R2=H, CH2R3=drawing 41, R4=H] | 35 | 0.8 | 5.0 | 2.0 |  |
| c1ccc(CN2CCC3CC(Cc4ccccc43)C2)cc1 (stereo not shown) [R=H, R1=H, R2=H, CH2R3=drawing 42, R4=H] | 120 | 1.0 | 3.0 |  |  |
| CCN1CCC2(C)CC(Cc3ccc(O)cc32)C1 (stereo not shown) [R=HO, R1=CH3, R2=H, CH2R3=CH2CH3, R4=H] | 80 | 1.5 | 2.0 |  |  |
| CN1CCC2(C)CC(Cc3ccc(O)cc32)C1 (stereo not shown) [R=HO, R1=CH3, R2=H, CH2R3=CH3, R4=H, 1,4-dimethyl-10-hydroxy-2,3,4,5,6,7-hexahydro-1,6-methano-1H-4-benzazonine] | 75 | 1.5 | 2.0 |  |  |
| CC(C)=CCN1CCC2(C)CC(Cc3ccc(O)cc32)C1 (stereo not shown) [R=HO, R1=CH3, R2=H, CH2R3=drawing 43, R4=H] | 40 | 1.0 | 1.5 |  |  |
| CC(C)CCN1CCC2(C)CC(Cc3ccc(O)cc32)C1 (stereo not shown) [R=HO, R1=CH3, R2=H, CH2R3=drawing 45, R4=H] | 40 | 1.0 | 1.5 |  |  |
| COc1ccc2c3c1O[C@H]1[C@@H](O)C=C[C@H]4[C@@H](C2)N(C)CC[C@@]341 [codeine phosphate, reference compound] |  |  |  |  | ED50 (guinea pigs [5]; [7]): 13.3 mg/kg; ED50 (guinea pigs [6]): 14.5 mg/kg |
| COc1ccc2c3c1O[C@H]1[C@@H](O)CC[C@H]4[C@@H](C2)N(C)CC[C@@]341 [dihydrocodeine phosphate, reference compound] |  |  |  |  | ED50 (guinea pigs [5]): 2.65 mg/kg; ED50 (guinea pigs [6]): 4.65 mg/kg |
| CC(C)=CCN1CCC2(C)c3cc(O)ccc3CC1C2C (stereo not shown) [pentazocine, 1,2,3,4,5,6-hexahydro-3-(3-methyl-2-butenyl)-6, 11-dimethyl-8-hydroxy-2,6-methano-3-benzazonine, reference compound] | 25 |  |  | 1.0 |  |
